Like-named read-outs stand apart in the source and are kept apart here.
Key:
[1] = biological target: CYP3A4 (Homo sapiens, UniProt P08684); assay: Mechanism-based (time- and concentration-dependent) inactivation of CYP3A4 in human liver microsomes; type: in vitro ADME; conditions: CYP3A4-mediated midazolam 1′-hydroxylation
Protocol: The microsomes (1 mg/mL) were pre-incubated with various concentrations of aschantin in 50 mM potassium phosphate buffer (pH 7.4) in the presence of NADPH. Aliquots (10 µL) of the incubated mixtures were withdrawn at 5, 10, 15, and 20 min after incubation commenced and added to other tubes containing the CYP substrates (2 µM amodiaquine for CYP2C8, 10 µM diclofenac for CYP2C9, 100 µM [S]-mephenytoin for CYP2C19, or 2 µM midazolam for CYP3A4), 1 mM NADPH, 50 mM potassium phosphate buffer (pH 7.4), and 10 mM MgCl2, in 90 µL reaction mixtures. […] Aliquots (5 µL) of the diluted supernatants were analyzed by LC-MS/MS, as described above.

[2] = biological target: T1, CYP2A6 (Homo sapiens, UniProt P11509); assay: CYP2A6-catalyzed coumarin 7-hydroxylase inhibition in pooled human liver microsomes
T1 sequence (P11509 1-494): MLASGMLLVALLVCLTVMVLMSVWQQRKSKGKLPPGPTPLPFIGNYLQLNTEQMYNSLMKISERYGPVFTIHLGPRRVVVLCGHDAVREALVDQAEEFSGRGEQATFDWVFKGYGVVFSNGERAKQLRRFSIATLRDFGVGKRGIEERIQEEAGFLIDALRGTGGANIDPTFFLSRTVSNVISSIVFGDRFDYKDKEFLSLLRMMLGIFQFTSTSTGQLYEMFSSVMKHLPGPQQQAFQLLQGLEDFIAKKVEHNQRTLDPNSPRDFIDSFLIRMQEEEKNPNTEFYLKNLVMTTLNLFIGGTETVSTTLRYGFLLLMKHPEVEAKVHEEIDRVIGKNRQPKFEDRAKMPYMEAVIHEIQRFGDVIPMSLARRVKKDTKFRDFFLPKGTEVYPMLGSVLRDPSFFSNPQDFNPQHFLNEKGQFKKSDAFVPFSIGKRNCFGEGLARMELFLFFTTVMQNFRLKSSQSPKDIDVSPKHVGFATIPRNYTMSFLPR
Protocol: (§1) The degrees of inhibition (the IC50 values) of aschantin toward CYP1A2, CYP2A6, CYP2C8, CYP2C9, CYP2C19, CYP2D6, and CYP3A4 were evaluated using pooled human liver microsomes employing a cocktail of CYP substrates and liquid chromatography-tandem mass spectrometry (LC-MS/MS). […] After 3 min pre-incubation at 37 °C, the reactions were initiated by addition of NADPH and incubation proceeded for 15 min at 37 °C in a shaking water bath. The reaction was stopped by placing the tubes on ice and adding 100 µL amounts of ice-cold methanol containing internal standards (^13C2,^15N-acetaminophen for acetaminophen and N-desethylamodiaquine; d9-1′-hydroxybufuralol for 4′-hydroxydiclofenac; and 7-hydroxycoumarin, 4′-hydroxy-mephenytoin, 1′-hydroxybufuralol, and 1′-hydroxymidazolam). Then the incubation mixtures were centrifuged at 13,000× g for 4 min at 4 °C. All assays were performed in triplicate and the average values were used in calculations.
(§2) To this end, we employed a tandem mass spectrometer (TSQ Quantum Access, Thermo Scientific, San Jose, CA, USA) coupled to a Nanospace SI-2 LC system (Shiseido, Tokyo, Japan). The column and autosampler temperatures were 50 °C and 6 °C, respectively. The mass spectrometer was equipped with an electrospray ionization (ESI) source and was operated in positive ion mode. The ESI source settings for metabolite ionization were as follows: capillary voltage, 4200 V; vaporizer temperature, 350 °C; capillary temperature 330 °C; sheath gas pressure, 35 psi; and auxiliary gas pressure, 15 psi. […] Analytical data were processed using Xcalibur® software (Thermo Scientific).
(§3) The apparent kinetic inhibitory potentials (the Ki values) were estimated from the fitted curves using Enzyme Kinetics version 1.1 (Systat Software Inc.).

[3] = biological target: T2, CYP1A2 (Homo sapiens, UniProt P05177); assay: CYP1A2-catalyzed phenacetin O-de-ethylase inhibition in pooled human liver microsomes
T2 sequence (P05177 1-516): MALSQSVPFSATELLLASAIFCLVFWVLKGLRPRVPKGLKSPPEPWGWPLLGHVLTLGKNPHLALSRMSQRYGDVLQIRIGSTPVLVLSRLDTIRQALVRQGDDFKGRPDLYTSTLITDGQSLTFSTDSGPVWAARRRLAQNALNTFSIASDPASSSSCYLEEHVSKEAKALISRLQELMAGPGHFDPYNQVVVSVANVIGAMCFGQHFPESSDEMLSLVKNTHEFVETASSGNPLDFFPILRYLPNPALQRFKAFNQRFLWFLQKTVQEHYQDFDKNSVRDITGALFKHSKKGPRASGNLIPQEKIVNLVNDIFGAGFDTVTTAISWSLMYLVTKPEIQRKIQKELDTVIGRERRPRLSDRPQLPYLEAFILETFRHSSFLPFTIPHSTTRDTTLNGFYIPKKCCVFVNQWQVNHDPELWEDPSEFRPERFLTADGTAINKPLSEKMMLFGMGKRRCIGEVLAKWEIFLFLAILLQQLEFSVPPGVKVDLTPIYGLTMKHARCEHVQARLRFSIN
Protocol: as §1, §2, §3

[4] = biological target: CYP2D6 (Homo sapiens, UniProt P10635); assay: CYP2D6-catalyzed bufuralol 1′-hydroxylase inhibition in pooled human liver microsomes
Protocol: as §1, §2

[5] = biological target: CYP2C9 (Homo sapiens, UniProt P11712); assay: CYP2C9-catalyzed diclofenac 4′-hydroxylase inhibition in pooled human liver microsomes; conditions: for IC50: CYP2C9 diclofenac 4′-hydroxylase, 10 µM diclofenac
Protocol: as §1, §2, §3

[6] = biological target: CYP2C19 (Homo sapiens, UniProt P33261); assay: CYP2C19-catalyzed [S]-mephenytoin 4′-hydroxylase inhibition in pooled human liver microsomes; conditions: for IC50: CYP2C19 (S)-mephenytoin 4′-hydroxylase, 100 µM [S]-mephenytoin
Protocol: as §1, §2, §3

[7] = aschantin at 100 µM, human liver microsomes
[8] = IC50 No Pre-incubation, pooled human liver microsomes, no pre-incubation
[9] = IC50 With Pre-incubation, 30 min pre-incubation with microsomes and NADPH

Chain of CYP2C19 (P33261 whole entry): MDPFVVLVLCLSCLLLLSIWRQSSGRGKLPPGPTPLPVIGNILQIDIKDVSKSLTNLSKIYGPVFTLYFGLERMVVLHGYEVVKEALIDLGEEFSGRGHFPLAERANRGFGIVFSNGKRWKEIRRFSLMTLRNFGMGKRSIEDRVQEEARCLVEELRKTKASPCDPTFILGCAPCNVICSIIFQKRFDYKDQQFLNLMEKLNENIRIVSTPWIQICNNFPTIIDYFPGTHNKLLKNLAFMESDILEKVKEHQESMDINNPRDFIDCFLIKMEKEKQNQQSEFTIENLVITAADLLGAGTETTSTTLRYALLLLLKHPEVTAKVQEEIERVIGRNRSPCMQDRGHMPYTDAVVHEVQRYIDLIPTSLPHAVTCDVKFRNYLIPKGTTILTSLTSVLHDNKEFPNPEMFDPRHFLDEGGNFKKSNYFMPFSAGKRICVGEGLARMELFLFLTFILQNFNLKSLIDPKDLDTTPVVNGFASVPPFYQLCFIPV
Chain of CYP2D6 (P10635 whole entry): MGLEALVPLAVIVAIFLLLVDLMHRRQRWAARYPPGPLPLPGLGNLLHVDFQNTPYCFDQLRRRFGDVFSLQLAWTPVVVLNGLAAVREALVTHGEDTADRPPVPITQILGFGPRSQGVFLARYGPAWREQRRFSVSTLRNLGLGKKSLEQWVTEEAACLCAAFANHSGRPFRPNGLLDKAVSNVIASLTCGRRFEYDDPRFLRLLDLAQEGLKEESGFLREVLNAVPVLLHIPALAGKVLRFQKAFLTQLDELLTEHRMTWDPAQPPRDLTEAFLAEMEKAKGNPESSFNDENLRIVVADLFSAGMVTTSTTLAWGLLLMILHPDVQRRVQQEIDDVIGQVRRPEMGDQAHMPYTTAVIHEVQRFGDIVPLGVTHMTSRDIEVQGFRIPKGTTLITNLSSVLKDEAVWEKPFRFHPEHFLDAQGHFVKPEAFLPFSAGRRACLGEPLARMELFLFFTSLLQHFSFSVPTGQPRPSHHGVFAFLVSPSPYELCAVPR
Chain of CYP2C9 (P11712 whole entry): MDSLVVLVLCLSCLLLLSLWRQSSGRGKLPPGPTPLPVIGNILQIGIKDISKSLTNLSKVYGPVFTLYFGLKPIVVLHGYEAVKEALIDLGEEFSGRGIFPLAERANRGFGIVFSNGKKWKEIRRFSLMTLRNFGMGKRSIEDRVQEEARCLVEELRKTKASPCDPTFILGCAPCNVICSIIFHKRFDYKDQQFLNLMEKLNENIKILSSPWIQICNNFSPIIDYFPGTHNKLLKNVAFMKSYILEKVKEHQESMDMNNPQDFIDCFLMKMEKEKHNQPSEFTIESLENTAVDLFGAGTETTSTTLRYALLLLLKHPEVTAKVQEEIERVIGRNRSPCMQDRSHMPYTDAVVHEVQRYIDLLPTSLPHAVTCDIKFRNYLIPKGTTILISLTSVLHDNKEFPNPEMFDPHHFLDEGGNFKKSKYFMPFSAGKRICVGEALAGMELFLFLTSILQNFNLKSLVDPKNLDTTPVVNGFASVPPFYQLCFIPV
Chain of CYP3A4 (P08684 2-503): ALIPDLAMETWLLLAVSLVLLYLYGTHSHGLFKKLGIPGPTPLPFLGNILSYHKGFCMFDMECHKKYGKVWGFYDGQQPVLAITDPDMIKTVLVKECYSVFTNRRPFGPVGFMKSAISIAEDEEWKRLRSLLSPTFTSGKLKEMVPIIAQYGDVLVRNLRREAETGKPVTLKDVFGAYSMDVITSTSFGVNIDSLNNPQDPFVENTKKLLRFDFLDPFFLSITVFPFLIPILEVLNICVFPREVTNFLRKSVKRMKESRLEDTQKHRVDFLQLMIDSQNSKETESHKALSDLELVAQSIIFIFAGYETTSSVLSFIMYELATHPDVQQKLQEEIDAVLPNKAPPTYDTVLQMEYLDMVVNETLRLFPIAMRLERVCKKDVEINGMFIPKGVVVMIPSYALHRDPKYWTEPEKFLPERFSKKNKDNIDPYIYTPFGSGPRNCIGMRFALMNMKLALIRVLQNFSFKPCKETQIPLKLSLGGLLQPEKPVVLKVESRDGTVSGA

`COc1cc([C@H]2OC[C@H]3[C@@H]2CO[C@@H]3c2ccc3c(c2)OCO3)cc(OC)c1OC` [Aschantin] was tested, and the Ki ([1]; read-out: Ki (apparent)) was 12.6 µM, the kinact ([1]; pH 7.4, probe midazolam (2 µM)) was 0.00103 s⁻¹ and the IC50 [2] was over 100 µM. The “inhibition of CYP2A6-mediated coumarin 7-hydroxylation” value [2, 7] was “negligibly inhibited”, the IC50 ([2]; read-out: IC50 With Pre-incubation, CYP2A6 coumarin 7-hydroxylase, 2.5 µM coumarin, 30 min pre-incubation with microsomes and NADPH) was over 100 µM and the IC50 [3] was over 100 µM. The “inhibition of CYP1A2-mediated phenacetin O-de-ethylation” value [3, 7] was “negligibly inhibited”, the IC50 ([3]; read-out: IC50 With Pre-incubation, CYP1A2 phenacetin O-de-ethylase, 50 µM phenacetin, 30 min pre-incubation with microsomes and NADPH) was over 100 µM and the IC50 [4] was over 100 µM. For the same compound, the “inhibition of CYP2D6-mediated bufuralol 1′-hydroxylation” value [4, 7] was “negligibly inhibited”, the IC50 ([4]; read-out: IC50 With Pre-incubation, CYP2D6 bufuralol 1′-hydroxylase, 5.0 µM bufuralol, 30 min pre-incubation with microsomes and NADPH) was over 100 µM and the IC50 [5, 8] was 40.5 µM. The IC50 [5, 9] was 14.1 µM, the IC50 shift at 0.5 h ([5]; human, pooled human liver microsomes, pH 7.4, probe diclofenac (10 µM), 4′-hydroxylation) was over 2.5 and the IC50 [6, 8] was 22.7 µM. It also gave an IC50 [6, 9] of 6.1 µM and an IC50 shift at 0.5 h ([6]; human, pooled human liver microsomes, pH 7.4, probe [S]-mephenytoin (100 µM), 4′-hydroxylation) of over 2.5.
